Earlier results in patent US20120209535A1, “METHOD FOR GENERATING BIOMARKER REFERENCE PATTERNS” (BASF Plant Science Company GmbH, priority 2009, published 2012).
Where two headings read alike, the source gives them in different places.

Legend:
[1] = known effect
bladder = conditions: known effect
liver = conditions: known effect

Row | Compound | immunosuppressant [1] | bladder carcinogen (bladder) | liver carcinogen (liver) | liver enzyme inducer (liver) | lipid accumulation in the liver (liver) | peroxisome proliferation effect (peroxisome proliferation) | peroxisome proliferation effect (peroxisome proliferation; expert knowledge and/or literature information)
1 | CC(=O)Nc1ccc2c(c1)Cc1ccccc1-2 [2-Acetylaminofluorene] | immunosuppressant | bladder carcinogen | liver carcinogen | potent liver enzyme inducer |  |  | 
2 | CC(=O)Nc1cccc2c1-c1ccccc1C2 [4-acetylaminofluorene] | immunosuppressant |  | no liver carcinogen | weak liver enzyme inducer | lipid accumulation in the liver |  | 
3 | CCCCOC(=O)c1ccccc1C(=O)OCCCC [dibutyl phthalate] |  |  |  |  |  | have the abovementioned effect | 
4 | Cc1cc(Cl)ccc1O[C@@H](C)C(=O)O [mecoprop-p] |  |  |  |  |  |  | have the abovementioned effect
